Assay results taken from ChEMBL document CHEMBL1140725, “Pradefovir: a prodrug that targets adefovir to the liver for the treatment of hepatitis B” (J Med Chem, 2008).

Assays:
Liver microsomes = test: Prodrug activation in Wistar rat liver microsome assessed as formation of adefovir at 250 uM after 5 mins
Hepatocyte = test: Prodrug activation in intracellular rat hepatocytes assessed as formation of adefovir diphosphate after 2 hrs; assay type: cell-based
Rattus norvegicus [1] = test: Prodrug activation in Sprague-Dawley rat liver hepatocytes assessed as formation of adefovir diphosphate at 30 mg/kg, po after 8 hrs; assay type: organism-based, Hepatocyte; design: dose 30 mg/kg, route oral
Liver [2] = test: Biodistribution in rat liver at 30 mg/kg, po after 24 hrs; assay type: ADME, organism-based; design: dose 30 mg/kg, route oral; details: in vivo
Kidney = test: Biodistribution in rat kidney at 30 mg/kg, po after 24 hrs; assay type: ADME, organism-based; design: dose 30 mg/kg, route oral; details: in vivo
Rattus norvegicus [3] = test: Biodistribution in rat small intestine at 30 mg/kg, po after 24 hrs; assay type: ADME, organism-based; design: dose 30 mg/kg, route oral; details: in vivo
Plasma = test: Biodistribution in rat plasma at 30 mg/kg, po after 24 hrs; assay type: ADME, organism-based; design: dose 30 mg/kg, route oral; details: in vivo
Liver [4] = test: Selectivity index, ratio of biodistribution in rat liver to kidney at 30 mg/kg, po after 24 hrs; assay type: organism-based; design: dose 30 mg/kg, route oral; details: in vivo
Intestine = test: Selectivity index, ratio of biodistribution in rat liver to intestine at 30 mg/kg, po after 24 hrs; assay type: organism-based; design: dose 30 mg/kg, route oral; details: in vivo
Rattus norvegicus [5] = test: Cmax in rat liver at 30 mg/kg, po; assay type: ADME, organism-based; design: dose 30 mg/kg, route oral; details: in vivo

Activity (Liver microsomes) | Activity (Hepatocyte) | SMILES | other results
1.5 nmol/min/mg | 6.2 nmol·h/g | Nc1ncnc2c1ncn2CCOCP1(=O)OCCC(c2ccc(Cl)c(Cl)c2)O1 (centres undefined) | 
2.9 nmol/min/mg | 26.7 nmol·h/g | Nc1ncnc2c1ncn2CCOCP1(=O)OCCC(c2cccnc2)O1 (centres undefined) | 
< 1 nmol/min/mg |  | COc1ccc(Br)cc1C1CCOP(=O)(COCCn2cnc3c(N)ncnc32)O1 (centres undefined) | 
0.5 nmol/min/mg | 0 nmol·h/g | CC(C)(C)c1ccc(C2CCOP(=O)(COCCn3cnc4c(N)ncnc43)O2)cc1 (centres undefined) | 
< 4.5 nmol/min/mg |  | Nc1ncnc2c1ncn2CCOCP1(=O)OCCC(c2cccc(Cl)c2Cl)O1 (centres undefined) | 
2.3 nmol/min/mg |  | Nc1ncnc2c1ncn2CCOCP1(=O)OCCC(c2cc(F)ccc2F)O1 (centres undefined) | 
< 1 nmol/min/mg |  | Nc1ncnc2c1ncn2CCOCP1(=O)OCCC(c2ccccc2F)O1 (centres undefined) | 
4 nmol/min/mg | < 0.5 nmol·h/g | COc1ccc(Br)c(C2CCOP(=O)(COCCn3cnc4c(N)ncnc43)O2)c1 (centres undefined) | 
1.5 nmol/min/mg | 61.9 nmol·h/g | Nc1ncnc2c1ncn2CCOCP1(=O)OCCC(c2cc(F)cc(F)c2)O1 (centres undefined) | Activity (Rattus norvegicus [1]): 2.2 nmol·h/g
2.5 nmol/min/mg | 9.8 nmol·h/g | Nc1ncnc2c1ncn2CCOCP1(=O)OCCC(c2ccc(Cl)cc2Cl)O1 (centres undefined) | 
6.2 nmol/min/mg |  | Nc1ncnc2c1ncn2CCOCP1(=O)OCCC(c2ccccc2Cl)O1 (centres undefined) | 
1.6 nmol/min/mg | 40.7 nmol·h/g | Cc1cc(C)cc(C2CCOP(=O)(COCCn3cnc4c(N)ncnc43)O2)c1 (centres undefined) | 
2.9 nmol/min/mg | 149.1 nmol·h/g | Nc1ncnc2c1ncn2CCOCP1(=O)OCCC(c2ccccc2)O1 (centres undefined) | Activity (Rattus norvegicus [1]): 0.6 nmol·h/g
0.5 nmol/min/mg | 0 nmol·h/g | Nc1ncnc2c1ncn2CCOCP1(=O)OCCC(c2ccsc2)O1 (centres undefined) | 
1.1 nmol/min/mg | < 0.5 nmol·h/g | COc1ccc(C2CCOP(=O)(COCCn3cnc4c(N)ncnc43)O2)cc1Br (centres undefined) | 
< 1 nmol/min/mg |  | Nc1ncnc2c1ncn2CCOCP1(=O)OCCC(c2cccc(F)c2)O1 (centres undefined) | 
4 nmol/min/mg | 0 nmol·h/g | Nc1ncnc2c1ncn2CCOCP1(=O)OCCC(c2ccoc2)O1 (centres undefined) | 
2.5 nmol/min/mg |  | Nc1ncnc2c1ncn2CCOCP1(=O)OCCC(c2ccc(F)cc2F)O1 (centres undefined) | 
1.9 nmol/min/mg | 70.3 nmol·h/g | Nc1ncnc2c1ncn2CCOCP1(=O)OCCC(c2cccc(Br)c2)O1 (centres undefined) | Activity (Rattus norvegicus [1]): 2.2 nmol·h/g
3.5 nmol/min/mg | 43.1 nmol·h/g | Nc1ncnc2c1ncn2CCOCP1(=O)OCCC(c2ccccc2Br)O1 (centres undefined) | Activity (Rattus norvegicus [1]): 7.1 nmol·h/g
< 1 nmol/min/mg |  | Nc1ncnc2c1ncn2CCOCP1(=O)OCCC(c2c(Cl)cccc2Cl)O1 (centres undefined) | 
4.5 nmol/min/mg | 106.2 nmol·h/g | Nc1ncnc2c1ncn2CCOCP1(=O)OCCC(c2ccncc2)O1 (centres undefined) | Activity (Rattus norvegicus [1]): 1.2 nmol·h/g
1.5 nmol/min/mg |  | Nc1ncnc2c1ncn2CCOCP1(=O)OCCC(c2c(F)cccc2F)O1 (centres undefined) | 
6.3 nmol/min/mg |  | Nc1ncnc2c1ncn2CCOCP1(=O)OCCC(c2cccc(F)c2F)O1 (centres undefined) | 
 |  | CC(C)(C)C(=O)OCOP(=O)(COCCn1cnc2c(N)ncnc21)OCOC(=O)C(C)(C)C [ADEFOVIR DIPIVOXIL] | Drug uptake (Liver [2]): 284 nmol·h/g; Drug uptake (Kidney): 742 nmol·h/g; Drug uptake (Rattus norvegicus [3]): 3206 nmol·h/g; Drug uptake (Plasma): 34 nmol·h/g; Selectivity index (Liver [4]): 0.4; Selectivity index (Intestine): 0.08
 |  | CS(=O)(=O)O.Nc1ncnc2c1ncn2CCOCP1(=O)OCCC(c2cccc(Cl)c2)O1 (centres undefined) | Cmax (Rattus norvegicus [5]): 19.6 nmol/g
1.9 nmol/min/mg | 64.4 nmol·h/g | Nc1ncnc2c1ncn2CCOCP1(=O)OCCC(c2cc(Cl)cc(Cl)c2)O1 (centres undefined) | Activity (Rattus norvegicus [1]): 2 nmol·h/g

SMILES | Activity (Liver microsomes) | Activity (Hepatocyte) | other results
Nc1ncnc2c1ncn2CCOCP1(=O)OCCC(c2cccc(Cl)c2)O1 (stereo in doubt; 3h) | 10.9 nmol/min/mg | 109.3 nmol·h/g | Activity (Rattus norvegicus [1]): 6.6 nmol·h/g
Nc1ncnc2c1ncn2CCOCP1(=O)OCCC(c2cccc(Cl)c2)O1 (cis isomer) | 0.421 nmol/min/mg |  | Drug uptake (Liver [2]): 884 nmol·h/g; Drug uptake (Kidney): 196 nmol·h/g; Drug uptake (Rattus norvegicus [3]): 118 nmol·h/g; Drug uptake (Plasma): 55 nmol·h/g; Selectivity index (Liver [4]): 4.5; Selectivity index (Intestine): 7.5; Cmax (Rattus norvegicus [5]): 8 nmol/g
Nc1ncnc2c1ncn2CCOC[P@@]1(=O)OCC[C@@H](c2cccc(Cl)c2)O1 [PRADEFOVIR] | 0.51 nmol/min/mg |  | Cmax (Rattus norvegicus [5]): 12.2 nmol/g
Nc1ncnc2c1ncn2CCOC[P@]1(=O)OCC[C@H](c2cccc(Cl)c2)O1 | 0.193 nmol/min/mg |  | Cmax (Rattus norvegicus [5]): 5.4 nmol/g
Nc1ncnc2c1ncn2CCOCP1(=O)OCCC(c2cccc(Cl)c2)O1 (trans isomer) | < 0.01 nmol/min/mg |  | 
